For assay [1], the system named is Rattus norvegicus. Put plainly: Induction of blood pressure in sham operated rat at 250 ng/kg/min, iv measured at 3 mins (reference value: 0.78 +/- 0.26 mmHg). It counts as functional.
Assay [2] relates to Rattus norvegicus. Put plainly: Induction of blood pressure in acute adrenalectomized rat at 250 ng/kg/min, iv measured at 30 mins (reference value: 3.66 +/- 0.74 mmHg). Type of assay: functional.
Assay [3] deals with Rattus norvegicus. Put plainly: Induction of blood pressure in acute adrenalectomized rat at 250 ng/kg/min, iv measured at 3 mins (reference value: 0.78 +/- 0.26 mmHg). Type of assay: functional.
For assay [4], the system named is Rattus norvegicus. Put plainly: Potentiation of angiotensin 2-induced blood pressure in rat at 250 ng/kg/min, iv relative to before compound infusion. It counts as functional.
Another assay is filed under the species Felis catus. Put plainly: Agonist activity at angiotensin AT2 receptor in isolated cat adrenal medulla assessed as secretory activity relative to angiotensin 2. It counts as tissue-based.
Assay [5] concerns Rattus norvegicus. Put plainly: Potentiation of angiotensin 2-induced blood pressure in acute adrenalectomized rat at 250 ng/kg/min, iv in presence of propranolol relative to before compound infusion. Type of assay: functional.
Assay [6] relates to Rattus norvegicus. Put plainly: Induction of blood pressure in 6 days adrenalectomized rat at 250 ng/kg/min, iv measured at 3 mins (reference value: 0.78 +/- 0.26 mmHg). Type of assay: functional.
A short description of assay [7]: Antagonist activity at angiotensin AT2 receptor in isolated cat adrenal medulla. It counts as tissue-based, Felis catus.
Assay [8] relates to Rattus norvegicus. Put plainly: Induction of blood pressure in rat at 250 ng/kg/min, iv measured at 3 mins (reference value: 0.78 +/- 0.26 mmHg). Type of assay: functional.
Assay [9] relates to Rattus norvegicus. Put plainly: Potentiation of angiotensin 2-induced blood pressure in acute adrenalectomized rat at 250 ng/kg/min, iv relative to before compound infusion. It counts as functional.
In assay [10] the test system is Rattus norvegicus. Put plainly: Potentiation of angiotensin 2-induced blood pressure in sham operated rat at 250 ng/kg/min, iv relative to before compound infusion. It counts as functional.
Assay [11] deals with Rattus norvegicus. Put plainly: Induction of blood pressure in rat at 250 ng/kg/min, iv measured at 30 mins in presence of propranolol (reference value: 3.66 +/- 0.74 mmHg). Type of assay: functional.
Assay [12] deals with Rattus norvegicus. Put plainly: Potentiation of angiotensin 2-induced blood pressure in 6 days adrenalectomized rat at 250 ng/kg/min, iv in presence of propranolol relative to before compound infusion. Type of assay: functional.
Assay [13] relates to Rattus norvegicus. Put plainly: Induction of blood pressure in rat at 250 ng/kg/min, iv measured at 3 mins in presence of propranolol (reference value: 0.78 +/- 0.26 mmHg). It counts as functional.
For assay [14], the system named is Rattus norvegicus. Put plainly: Induction of blood pressure in sham operated rat at 250 ng/kg/min, iv measured at 30 mins (reference value: 3.66 +/- 0.74 mmHg). It counts as functional.
The test system of assay [15] is Rattus norvegicus. Put plainly: Induction of blood pressure in chronic adrenalectomized rat at 250 ng/kg/min, iv measured at 3 mins (reference value: 0.78 +/- 0.26 mmHg). Type of assay: functional.
Assay [16] has as its system Rattus norvegicus. Put plainly: Induction of blood pressure in rat at 250 ng/kg/min, iv measured at 30 mins (reference value: 3.66 +/- 0.74 mmHg). Type of assay: functional.
For assay [17], the system named is Rattus norvegicus. Put plainly: Induction of blood pressure in 6 days adrenalectomized rat at 250 ng/kg/min, iv measured at 30 mins (reference value: 3.66 +/- 0.74 mmHg). Type of assay: functional.
For assay [18], the system named is Rattus norvegicus. Put plainly: Induction of blood pressure in chronic adrenalectomized rat at 250 ng/kg/min, iv measured at 30 mins (reference value: 3.66 +/- 0.74 mmHg). It counts as functional.
Assay [19] relates to Rattus norvegicus. Put plainly: Potentiation of angiotensin 2-induced blood pressure in chronic adrenalectomized rat at 250 ng/kg/min, iv in presence of propranolol relative to before compound infusion. It counts as functional.

The source of these data is ChEMBL document CHEMBL3272315, “Synthesis of angiotensin II antagonists containing N- and O-methylated and other amino acid residues” (J Med Chem, 1976).

`CC[C@H](C)[C@H](NC(=O)[C@H](Cc1ccc(O)cc1)NC(=O)[C@@H](NC(=O)[C@H](CCCNC(=N)N)NC(=O)CNC)C(C)C)C(=O)N[C@@H](Cc1cnc[nH]1)C(=O)N1CCC[C@H]1C(=O)N[C@H](C(=O)O)[C@@H](C)OC`: the Activity in the assay with Rattus norvegicus [1] was 19.25 mmHg; in the assay on Rattus norvegicus [2] it was 7.62 mmHg; in the assay on Rattus norvegicus [3], 7.75 mmHg; in the assay listed under Felis catus, 0.1%; with Rattus norvegicus [6] it was 3 mmHg; in the assay with Rattus norvegicus [8], 13.82 mmHg. Also, the Activity in the assay with Rattus norvegicus [11] is recorded as -1.25 mmHg; with Rattus norvegicus [13], 11.5 mmHg; in the assay on Rattus norvegicus [14], 11 mmHg; with Rattus norvegicus [15], 5 mmHg; in the assay with Rattus norvegicus [16], 15.63 mmHg; in the assay with Rattus norvegicus [17], -0.4 mmHg. In the assay with Rattus norvegicus [18], this compound gave an Activity of 2.25 mmHg. For the same compound, the Ratio in the assay on Rattus norvegicus [4] is recorded as 62.52; in the assay with Rattus norvegicus [5], 54.16; in the assay with Rattus norvegicus [9] it was 22.96; in the assay with Rattus norvegicus [10], 45.86; with Rattus norvegicus [12], 11.61; in the assay on Rattus norvegicus [19] it was 12.06. Moreover, the pA2 in assay [7] amounted to 7.
